Measurements as given in patent publication US10822338B2, “Substituted aminoquinazoline compounds as A2A antagonist” (Merck Sharp & Dohme Corp., priority 2015, dated 2020).

target: human A2A receptor (Homo sapiens (Human), UniProt P29274); assay: A2A competition binding assay using Scintillation Proximity technology; conditions: 0.25 μg of membranes from HEK293 cells expressing the human A2a receptor per well; 0.5 nM tritiated radioligand; Cheng-Prusoff
Method: Binding affinities of compounds of the invention for the human A2A receptor were determined in a competition binding assay using Scintillation Proximity technology. Thus, 1^μg (^ denotes 1 μg of membrane/well), or preferably 0.25 μg of membranes from HEK293 cells expressing the human A2a receptor were incubated with a compound of the invention at concentrations ranging from 3000 nM to 0.15 nM in a reaction mixture containing also 0.5 nM of a tritiated form of 5-amino-7-[2-phenethyl]-2-(furan-2-yl)-7H-pyrazolo[4,3-e][1,2,4]triazolo[1,5-c]pyrimidine (the tritiated compound) and 25 μg of wheat germ agglutin-coated yttrium silicate SPA beads for one hour at room temperature with agitation. The beads were then allowed to settle to the bottom of the wells for 1 hr, after which the membrane-associated radioactivity was determined by scintillation counting in a TopCount microplate reader. Ki values were determined using the Cheng-Prusoff equation.
HEK293 cells expressing the human, rat, dog or monkey adenosine 2a receptor (Purchased from Perkin-Elmer # RBHA2AM400UA).
The Tritiated compound was prepared in-house by MRL Radiochemistry according to published methods.
Wheat germ agglutinin-coated yttrium silicate SPA beads (GE Healthcare #RPNQ0023). Dilute to 25 mg/mL in assay buffer.
Assay Buffer was prepared in house: Dulbecco's calcium and magnesium free phosphate buffered saline+10 mM MgCl2
Adenosine deaminase from calf intestine, 10 mg/2 mL (Roche #10 102 105 001).
A2A antagonist standard (9-chloro-1-(2-furanyl)-[1,2,4]triazolo[1,5-c]quinazolin-5-amine from Tocris Bioscience)
Make eight 1:3 serial dilutions in 100% DMSO from a 3 mM compound stock
Transfer 50 nL of compound into a 384-well OptiPlate (Perkin Elmer).
Typically, final concentrations of compound used in the assay ranged from 3000 nM to 0.152 nM.
Dilute a solution of the Tritiated compound to 1.25 nM in assay buffer. This a 2.5× solution. The final concentration in the assay is 0.5 nM. Calculate the concentration by counting two 5 μL aliquots.
Use *1 ug or preferrably 0.25 ug of membrane/well. Dilute membranes to 9.7 μg/ml in assay buffer. Treat with 20 ug/ml adenosine deaminase (ADA) for 15 minutes at room temperature to degrade endogenous adenosine.
Use 25 μg/well wheat germ agglutinin-coated yttrium silicate SPA beads.
Mix ADA-treated membranes and SPA beads together for 30 min prior to assay.
To the Perkin-Elmer Optiplate-384 containing the compound titration add 20 μL of 2.5× solution of the Tritiated compound and 30 μL of the membrane-bead mixture. Incubate for one hour at room temperature with agitation.
Include total binding (assay buffer+1% DMSO) and non-specific binding (CGS15943, 1 μM) wells.
Allow the beads to settle for one hour.
A curve fitting program (i.e., Prism, Activity Base, Chemcart) is used to determine the EC50. The Ki value is calculated using the Cheng-Prusoff equation. Ki=EC50/(1+(radioligand concentration/Kd)) Counting and Calculations
Counting and calculations were performed as described within the “A2A Activity Binding of Compounds of the Invention” section. Using the foregoing methods, the following results were obtained using compounds of the invention described herein. Each example compound tested is reported in the following format: Example number: A2A Ki (nM) selectivity.

Sequence of human A2A receptor (P29274 whole entry): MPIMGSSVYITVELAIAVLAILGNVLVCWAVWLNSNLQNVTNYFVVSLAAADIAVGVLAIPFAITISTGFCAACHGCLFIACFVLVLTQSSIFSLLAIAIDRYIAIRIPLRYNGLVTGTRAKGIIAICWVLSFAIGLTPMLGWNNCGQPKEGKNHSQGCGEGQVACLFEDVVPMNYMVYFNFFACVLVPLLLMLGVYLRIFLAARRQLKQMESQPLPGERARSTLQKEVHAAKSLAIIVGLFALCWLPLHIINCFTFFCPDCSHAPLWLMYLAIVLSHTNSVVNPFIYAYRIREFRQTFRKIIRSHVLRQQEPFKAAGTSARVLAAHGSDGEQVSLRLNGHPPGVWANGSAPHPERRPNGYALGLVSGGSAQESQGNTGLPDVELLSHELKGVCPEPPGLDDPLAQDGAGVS

SMILES | Ki [nM]
COc1cccc2c1nc(N)n1nc([C@@H]3CCCN(C(=O)C(C)(C)F)C3)nc21 [Example 42, (R)-1-(3-(5-amino-7-methoxy-[1,2,4]triazolo[1,5-c]quinazolin-2-yl)piperidin-1-yl)-2-fluoro-2-methylpropan-1-one] | 1.1
COc1cccc2c1nc(N)n1nc([C@@H]3CCCN(CC(C)(C)F)C3)nc21 [Example 43, (R)-2-(1-(2-fluoro-2-methylpropyl)piperidin-3-yl)-7-methoxy-[1,2,4]triazolo[1,5-c]triazolo[1,5-c]quinazolin-5-amine] | 0.6
COc1cccc2c1nc(N)n1nc([C@@H]3CCCN(CC4CCOCC4)C3)nc21 [Example 44, (R)-7-methoxy-2-(1-((tetrahydro-2H-pyran-4-yl)methyl)piperidin-3-yl)-[1,2,4]triazolo[1,5-c]quinazolin-5-amine] | 5
COc1cccc2c1nc(N)n1nc([C@@H]3CCCN(Cc4cc(F)cc(C(F)(F)F)c4)C3)nc21 [Example 46, 2-((3R)-1-[3-fluoro-5-(trifluoromethyl)benzyl)piperidin-3-yl)-7-methoxy[1,2,4]triazolo [1,5-c]quinazolin-5-amine] | 2
COc1cccc2c1nc(N)n1nc([C@@H]3CCCN(CC4CCCC4)C3)nc21 [Example 47, 2-((3R)-1-(cyclopentylmethyl)piperidin-3-yl)-7-methoxy[1,2,4]triazolo [1,5-c]quinazolin-5-amine] | 9.7
COc1cccc2c1nc(N)n1nc([C@@H]3CCCN(C4CCC(F)(F)CC4)C3)nc21 [Example 49, 2-((3R)-1-(4,4-difluorocyclohexyl)piperidin-3-yl)-7-methoxy[1,2,4]triazolo [1,5-c]quinazolin-5-amine] | 5.9
COc1cccc2c1nc(N)n1nc([C@@H]3CCCN(C4CC4)C3)nc21 [Example 52, (R)-2-(1-cyclopropylpiperidin-3-yl)-7-methoxy-[1,2,4]triazolo[1,5-c]quinazolin-5-amine] | 1.2
COc1cccc2c1nc(N)n1nc([C@@H]3CCN(CC(F)(F)F)C3)nc21 [Example 53, (R)-7-methoxy-2-(1-(2,2,2-trifluoroethyl)pyrrolidin-3-yl)-[1,2,4]triazolo[1,5-c]quinazolin-5-amine] | 2
COc1cccc2c1nc(N)n1nc([C@H]3CN(C4CCC(F)(F)CC4)CCO3)nc21 [Example 54, (R)-2-(4-(4,4-difluorocyclohexyl)morpholin-2-yl)-7-methoxy-[1,2,4]triazolo[15-c]quinazolin-5-amine] | 3
COc1cccc2c1nc(N)n1nc([C@@H]3CC(F)(F)CN3)nc21 [Example 57, (S)-2-(4,4-difluoropyrrolidin-2-yl)-7-methoxy-[1,2,4]triazolo[1,5-c]quinazolin-5-amine] | 0.5

same assay, conditions: values marked ^: 1 μg of membrane/well (HEK293 cells expressing the human A2a receptor); 0.5 nM tritiated radioligand; Cheng-Prusoff

SMILES | Ki [nM]
COc1cccc2c1nc(N)n1nc([C@@H]3CCCN(C(=O)c4cccs4)C3)nc21 [Example 39, 7-methoxy-2-((3R)-1-(thiophen-2-ylcarbonyl)piperidin-3-yl)[1,2,4]triazolo[1,5-c]quinazolin-5-amine] | 2.7
COc1cccc2c1nc(N)n1nc([C@@H]3CCCN(C(=O)c4ocnc4C)C3)nc21 [Example 40, 7-methoxy-2-((3R)-1-((4-methyl-1,3-oxazol-5-yl)carbonyl)piperidin-3-yl)[1,2,4]triazolo[1,5-c]quinazolin-5-amine] | 1.5
COc1cccc(C(=O)N2CCC[C@@H](c3nc4c5cccc(OC)c5nc(N)n4n3)C2)c1 [Example 41, 7-methoxy-2-((3R)-1-((3-methoxyphenyl)carbonyl)piperidin-3-yl)[1,2,4]triazolo[1,5-c]quinazolin-5-amine] | 1.9
COc1cccc2c1nc(N)n1nc([C@@H]3CCCN(Cc4cccnc4)C3)nc21 [Example 45, 7-methoxy-2-((3R)-1-(pyridin-3-ylmethyl)piperidin-3-yl)[1,2,4]triazolo[1,5-c]quinazolin-5-amine] | 3.8
COc1cccc2c1nc(N)n1nc([C@@H]3CCCN(Cc4cnc(C)s4)C3)nc21 [Example 48, 7-methoxy-2-((3R)-1-((2-methyl-1,3-thiazol-5-yl)methyl)piperidin-3-yl)[1,2,4]triazolo[1,5-c]quinazolin-5-amine] | 2.1
